# Source: patent publication US7955852B2, “Expansion of renewable stem cell populations” (Gamida Cell Ltd., priority 2002, dated 2011)
# Test system: CD34+ cells
# Assay: Ex-vivo expansion of CD34+ cell enriched cord blood cultures with cytokines; cell counts and FACS surface antigen analysis
# Assay type: cell-based, human
# Settings: for No. of CD34+ cells: treated for one week only; for % 34+ cells / % 34+/38− cells / % 34+/Lin− cells / No. of cells (×10^4): two weeks after seeding, 4 cytokines
# Method: Human blood cells were obtained from umbilical cord blood from female patients following full-term, normal delivery (informed consent was obtained).
# Samples were collected and processed within 12 hours postpartum. Blood was mixed with 3% Gelatin (Sigma, St. Louis, Mo.), sedimented for 30 minutes to remove most red blood cells. […] The mononuclear cell fraction in the interface layer was collected, washed three times and resuspended in phosphate-buffered saline (PBS) solution (Biological Industries) containing 0.5% bovine serum albumin (BSA, Fraction V; Sigma).
# To purify CD34^+ mononuclear cells, the fraction was subjected to two cycles of immuno-magnetic separation using the MiniMACS® or Clinimax® CD34 Progenitor Cell Isolation Kit (Miltenyi Biotec, Auburn, Calif.) as per manufacturer's recommendations.
# CD34^+ expressing purified cells above were cultured in 24-well Costar Cell Culture Clusters (Corning Inc., Corning, N.Y.) or culture bags (American Fluoroseal Corp), at a concentration of 10^4 cells/ml in alpha medium (Biological Industries, Beit Haemek, Israel) supplemented with 10% fetal bovine serum (FBS, Biological Industries). The following human recombinant cytokines were added: Thrombopoietin (TPO), interleukin-6 (IL-6), FLT-3 ligand and stem cell factor (SCF), all at final concentrations of 50 ng/ml each, though occasionally IL-3, at a concentration of 20 ng/ml, was added either together or instead of SCF. For non-hematopoietic cell differentiation, FGF, EGF, NGF, VEGF, LIF or Hepatocyte growth factor (HGF) were used to supplement the growth medium, either alone or in various combinations. All cytokines used were purchased from Perpo Tech, Inc. (Rocky Hill, N.J.). The cultures were incubated at 37° C., 5% CO2, in a humidified atmosphere.
# At weekly intervals, cell cultures were toped and semi-depopulated and were supplemented with fresh medium, serum and cytokines or supplemented with fresh growth medium, alone. At predetermined time points, cells were harvested, stained with trypan blue, counted, and cell morphology was determined via the use of cytospin (Shandon, UK)-prepared smears stained with May-Grunwald/Giemsa solutions.
# CD34^+ purified and whole MNC cultures were prepared and maintained as described above. […] The antagonist was added for a predetermined, limited period, for up to three weeks or continuously during the entire culture period.
# Cells were harvested, washed with a PBS solution containing 1% bovine sera albumin (BSA) and 0.1% sodium azide (Sigma), and stained at 4° C. for 60 minutes with fluorescein isothiocyanate or phycoerythrin-conjugated antibodies (all from Immunoquality Products, the Netherlands). The cells were then washed with the same buffer and analyzed by FACS caliber or Facstarplus flow cytometers. Cells were passed at a rate of 1000 cells/second, using saline as the sheath fluid. A 488 nm argon laser beam served as the light source for excitation. Emission of ten thousand cells was measured using logarithmic amplification, and analyzed using CellQuest software. Negative control staining of cells was accomplished with mouse IgG-PE (Dako A/S Glostrup, Denmark) and mouse IgG-FITC (BD Biosciences, Erembodegem, Belgium).
# CD34 surface expression on short and long-term cultures initiated either with purified CD34^+ cells or the entire MNC fraction was determined as follows: CD34^+ cells were positively reselected (Miltenyi kit) and counted. Purity was confirmed by subsequent FACS and cell morphology analysis.
# Reselected CD34^+ cell subsets were stained for the following combination of antigens: CD34PE/CD38FITC and CD34PE/38, 33, 14, 15, 3, 4, 61, 19 (Lin) FITC. The fraction positive for CD34 and negative for CD38 was defined as CD34^+CD38^−. The fraction positive for CD34 and negative for LIN was defined as CD34^+Lin^− cell fraction.
# FACS analysis results are given as percentage values of cells. Absolute numbers of subsets are calculated from the absolute number of CD34^+ cells.
# [1] = 2 weeks expansion, re-selected CD34+ cell fraction (FIG. 2)
smiles,measurement,setting,value
"CCc1ccc(C2=CC(C)(C)Sc3ccc(C#Cc4ccc(C(=O)O)cc4)cc32)cc1 [AGN 194310, 4-[[4-(4-ethylphenyl)-2,2-dimethyl-(2H)-thiochroman-6-yl]-ethynyl]benzoic acid]",increase in CD34+CD38− surface expression,[1],1000 fold
same,increase in CD34+Lin− surface expression,[1],500 fold
same,No. of CD34+ cells,"10^−5 M, week 13",10322
same,No. of CD34+ cells,"10^−5 M, week 20",0
same,% 34+ cells,10^−5 M,18.94%
same,% 34+/38− cells,10^−5 M,17.14%
same,% 34+/Lin− cells,10^−5 M,15.18%
same,No. of cells (×10^4),10^−5 M,42 ×10^4
same,% 34+ cells,10^−6 M,19.59%
same,% 34+/38− cells,10^−6 M,17.16%
same,% 34+/Lin− cells,10^−6 M,11.91%
same,No. of cells (×10^4),10^−6 M,52 ×10^4
same,time post initial seeding until which cell proliferation was enabled,10^−7 M or 0.41 microgram/liter (FIG. 4),≤ 11 weeks
same,activity on ex vivo expansion of stem/progenitor cells,"10^−7 M, along with IL-3, 3 and 5 weeks",moderate activity
same,increase in CD34+Lin− surface expression,"after two weeks in culture, CD34+ re-selected fraction (FIG. 3C)",530 fold
same,increase in CD34+ expression between week three to eleven,"antagonist for the first three weeks only, then eight weeks without",92 fold
same,"expression of differentiation associated antigens CD33, CD14, CD15, CD4, CD3, CD19 and CD61","two weeks, FACS (FIGS. 1A-C)",significantly inhibited
same,expression of the CD38 antigen,"two weeks, FACS (FIGS. 1A-C)",completely abolished
same,expansion of CD34+ compartment since the initiation of the cultures,"week 11, antagonist for the first three weeks only",1621 fold
same,increase in CD34+Lin− expression,"week eleven, 9 weeks after termination of antagonist treatment","16,700 fold"
